Values of other authors as cited in patent publication US5739336A, “1,3,8-triaza- and 3,8-diaza-1-oxaspiro [4,5] decane derivatives” (Syntex (U.S.A.) Inc., priority 1996, dated 1998).

How the values were obtained:
rats [1] = system: rats
migraine = conditions: human, in vivo
rat = conditions: SI and elevated X-maze models
human volunteers [2] = conditions: for slow wave sleep (SWS): human/healthy volunteers
rats [3] = system: rats; remark: listed apart in the source
human volunteers [4] = system: human volunteers
[5] = system: panic disorder patients or obsessive compulsive disorder patients
human volunteers [6] = system: human volunteers; remark: listed apart in the source
[7] = system: patients withdrawing from other drugs of abuse

| SMILES | alcohol preference (rats [1]) | clinical effectiveness as antimigraine agent (migraine) | anxiogenic effects (rat) | craving for alcohol (abstaining alcoholics) | rapid eye movement sleep (human volunteers [2]; human volunteers) | sleep efficiency (human volunteers [2]; human volunteers) | total sleep time (human volunteers [2]; human volunteers) | slow wave sleep (SWS) (human volunteers [2]) | penile erections (rats [3]) | anxiety on administration (human volunteers [4]) | levels of panic and/or anxiety [5] | migraine-like headaches (human volunteers [6]) | cocaine and fentanyl preference (rat models of addiction) | alcohol intake (chronic alcoholics) | usefulness in withdrawal from other drugs of abuse [7] | sleep onset latency (human volunteers [2]; healthy volunteers) | subjective sleep quality (human volunteers [2]; healthy volunteers) |
| --- | --- | --- | --- | --- | --- | --- | --- | --- | --- | --- | --- | --- | --- | --- | --- | --- | --- |
| O=C(c1ccc(F)cc1)C1CCN(CCn2c(=O)[nH]c3ccccc3c2=O)CC1 [ketanserin] | has no affect on preference for alcohol | is not | – | – | – | – | – | – | – | – | – | – | – | – | – | – | – |
| Clc1cccc(N2CCNCC2)c1 [mCPP, 1-(3-chlorophenyl)piperazine] | – | – | produces anxiogenic effects | induces a craving for alcohol | reduces total sleep time, sleep efficiency, slow wave sleep (SWS) and rapid eye movement sleep | reduces total sleep time, sleep efficiency | reduces total sleep time | reduces total sleep time, sleep efficiency, slow wave sleep (SWS) | produces penile erections in rats | causes anxiety | increases levels of panic and/or anxiety | causes migraine-like headaches | – | – | – | – | – |
| Cc1nc2sccn2c(=O)c1CCN1CCC(=C(c2ccc(F)cc2)c2ccc(F)cc2)CC1 [ritanserin] | reduces alcohol preference | – | – | – | – | – | – | increases SWS | – | – | – | – | reduces both cocaine and fentanyl preference | decreases alcohol intake | is useful in patients withdrawing from other drugs of abuse | reduces sleep onset latency | improves subjective sleep quality |
